Laboratory results as given in US6673938B1, “Substituted pyridine herbicides” (Syngenta Participations AG, priority 1998, dated 2004).

Legend:
[1] = system: Monocotyledonous and dicotyledonous test plants; test: Post-emergence herbicidal action; format: in vivo; details: evaluated after approximately 18 days; for Post-emergence action, Ipomoea / Post-emergence action, Lolium / Post-emergence action, Setaria / Post-emergence action, Sinapis / Post-emergence action, Solanum / Post-emergence action, Stellaria: 2000 g/ha, sprayed in 4- to 6-leaf stage, nine-step scale; for Post-emergence action: Abutilon (score, nine-step scale) / Post-emergence action: Chenop. (score, nine-step scale) / Post-emergence action: Digitaria (score, nine-step scale) / Post-emergence action: Echino. (score, nine-step scale) / Post-emergence action: Ipopur. (score, nine-step scale) / Post-emergence action: Panicum (score, nine-step scale) / Post-emergence action: Xanth. (score, nine-step scale): 250 g/ha, sprayed at 4- to 6-leaf stage
Method: Monocotyledonous and dicotyledonous test plants are grown in the greenhouse in plastic pots containing standard soil, and, in the 4- to 6-leaf stage, sprayed with an aqueous suspension of the test substances of the formula I prepared with a 25% wettable powder (Example F3, b) in accordance with WO 97/34485) or with an emulsion of the test substances of the formula I prepared with a 25% emulsion concentrate (Example F1, c) in accordance with WO 97/34485), corresponding to a rate of 2 kg of a.i./ha or 250 g of a.i./ha (500 l of water/ha). The test plants are subsequently grown on in the greenhouse under optimal conditions. After a test period of approximately 18 days, the test is evaluated with reference to a nine-step scale (1=complete damage, 9=no effect). Score figures of 1 to 4 (in particular 1 to 3) mean a good to very good herbicidal action. In this test, the compounds of the formula I show a potent herbicidal action.

[2] = system: Monocotyledonous and dicotyledonous test plants; test: Herbicidal action before emergence of the plants (pre-emergence action); format: in vivo; details: evaluated after 3 weeks, nine-step scale; for pre-emergence action, Cyperus / pre-emergence action, Ipomoea / pre-emergence action, Setaria / pre-emergence action, Sinapis / pre-emergence action, Solanum / pre-emergence action, Stellaria: 2000 g/ha; for Pre-emergence action, Abutilon / Pre-emergence action, Amaranthus / Pre-emergence action, Chenop. / Pre-emergence action, Digitaria / Pre-emergence action, Echino. / Pre-emergence action, Panicum: 250 g/ha
Method: Monocotyledonous and dicotyledonous test plants are sown in standard soil in plastic pots. Immediately after sowing, the test substances as aqueous suspensions (prepared with a 25% wettable powder (Example F3, b) in accordance with WO 97/34485) or as emulsions (prepared with a 25% emulsion concentrate (Example F1, c)) are sprayed on at a rate of 2 kg of a.i./ha or 250 g of a.i./ha (500 l of water/ha). The test plants are then grown in the greenhouse under optimal conditions. After a test period of 3 weeks, the experiment is evaluated with reference to a nine-step scale (1=complete damage, 9=no effect). Score figures of 1 to 4 (in particular 1 to 3) mean a good to very good herbicidal action.

Row | SMILES | Post-emergence action, Ipomoea [1] | Post-emergence action, Lolium [1] | Post-emergence action, Setaria [1] | Post-emergence action, Sinapis [1] | Post-emergence action, Solanum [1] | Post-emergence action, Stellaria [1] | pre-emergence action, Cyperus [2] | pre-emergence action, Ipomoea [2] | pre-emergence action, Setaria [2] | pre-emergence action, Sinapis [2] | pre-emergence action, Solanum [2] | pre-emergence action, Stellaria [2] | other results
1 | Cc1nc(C(F)(F)F)ccc1C(=O)C1=C(O)C(C)(C)CC2(CC2)C1=O [Compound A2-C24] | 1 | 1 | 1 | 1 | 1 | 1 | 1 | 2 | 1 | 1 | 1 | 2 | 
2 | Cc1nc(C(F)(F)F)ccc1C(=O)C1=C(O)C(C)(S(C)(=O)=O)CC(C)C1=O (stereo not drawn) [Compound A2-B75] | 2 | 2 | 3 | 1 | 2 | 2 | 2 | 3 | 2 | 2 | 1 | 2 | 
3 | COC(=O)C1C(O)=C(C(=O)c2ccc(C(F)(F)F)nc2C)C(=O)CC1C (stereo not drawn) [Compound A2-B144] |  |  |  |  |  |  | 3 | 4 | 2 | 2 | 2 | 4 | 
4 | COC(=O)C1(OC)CCC(=O)C(C(=O)c2ccc(C(F)(F)F)nc2C)=C1O (stereo not drawn) [Compound A2-B1067] |  |  |  |  |  |  | 2 | 3 | 2 | 2 | 3 | 3 | 
5 | COCc1nc(C(F)(F)F)ccc1C(=O)C1=C(O)CC(C)(C)CC1=O [Compound A8-B1063] |  |  |  |  |  |  |  |  |  |  |  |  | Pre-emergence action, Abutilon [2]: 2; Pre-emergence action, Amaranthus [2]: 4; Pre-emergence action, Chenop. [2]: 1; Pre-emergence action, Digitaria [2]: 3; Pre-emergence action, Echino. [2]: 3; Pre-emergence action, Panicum [2]: 2
6 | COc1nc(C(F)(F)F)ccc1C(=O)C1=C(O)C(C)(C)CCC1=O [Compound A1022-B24] |  |  |  |  |  |  |  |  |  |  |  |  | Pre-emergence action, Abutilon [2]: 3; Pre-emergence action, Amaranthus [2]: 4; Pre-emergence action, Chenop. [2]: 1; Pre-emergence action, Digitaria [2]: 4; Pre-emergence action, Echino. [2]: 4; Pre-emergence action, Panicum [2]: 2
7 | Cc1nc(C(F)(F)F)ccc1C(=O)C1=C(O)C(C)(C)OCC1=O [Compound A2-B552] |  |  |  |  |  |  | 1 | 2 | 2 | 2 | 1 | 2 | 
8 | COCc1nc(C(F)(F)F)ccc1C(=O)C1=C(O)CC2CCCC2C1=O (stereo not drawn) [Compound A8-D36] |  |  |  |  |  |  |  |  |  |  |  |  | Post-emergence action: Abutilon (score, nine-step scale) [1]: 2; Post-emergence action: Chenop. (score, nine-step scale) [1]: 2; Post-emergence action: Digitaria (score, nine-step scale) [1]: 3; Post-emergence action: Echino. (score, nine-step scale) [1]: 2; Post-emergence action: Ipopur. (score, nine-step scale) [1]: 3; Post-emergence action: Panicum (score, nine-step scale) [1]: 3; Post-emergence action: Xanth. (score, nine-step scale) [1]: 3
9 | Cc1cc(C(F)(F)F)ncc1C(=O)C1=C(O)C(C)(C)CCC1=O [Compound A531-B24] | 2 | 2 | 2 | 1 | 2 | 2 |  |  |  |  |  |  | 
10 | Cc1nc(C(F)(F)C(F)(F)F)ccc1C(=O)C1=C(O)C(C)(C)CCC1=O [Compound A34-B24] | 1 | 2 | 2 | 1 | 2 | 2 |  |  |  |  |  |  | 
11 | CCC1(CC)CC(C)C(=O)C(C(=O)c2ccc(C(F)(F)F)nc2C)=C1O (stereo not drawn) [Compound A2-B1093] | 2 | 2 | 2 | 1 | 2 | 2 |  |  |  |  |  |  | 
12 | COCc1nc(C(F)(F)F)ccc1C(=O)C1=C(O)C(C)C2CC2C1=O (stereo not drawn) [Compound A8-D109] |  |  |  |  |  |  |  |  |  |  |  |  | Post-emergence action: Abutilon (score, nine-step scale) [1]: 3; Post-emergence action: Chenop. (score, nine-step scale) [1]: 3; Post-emergence action: Digitaria (score, nine-step scale) [1]: 3; Post-emergence action: Echino. (score, nine-step scale) [1]: 3; Post-emergence action: Ipopur. (score, nine-step scale) [1]: 2; Post-emergence action: Panicum (score, nine-step scale) [1]: 3; Post-emergence action: Xanth. (score, nine-step scale) [1]: 1
13 | Cc1nc(C(F)(F)F)ccc1C(=O)C1=C(O)CCC2(CCCCCC2)C1=O [Compound A2-C149] | 1 | 3 | 2 | 1 | 2 | 2 |  |  |  |  |  |  | 
14 | Cc1nc(C(F)(F)F)ccc1C(=O)C1=C(O)CC(C)(C(F)(F)F)CC1=O (stereo not drawn) [Compound A2-B1066] | 1 | 3 | 2 | 1 | 2 | 2 |  |  |  |  |  |  | 
15 | CCOC(=O)C1(C)C(O)=C(C(=O)c2ccc(C(F)(F)F)nc2COC)C(=O)C2CC21 (stereo not drawn) [Compound A8-D111] |  |  |  |  |  |  |  |  |  |  |  |  | Post-emergence action: Abutilon (score, nine-step scale) [1]: 3; Post-emergence action: Chenop. (score, nine-step scale) [1]: 3; Post-emergence action: Digitaria (score, nine-step scale) [1]: 3; Post-emergence action: Echino. (score, nine-step scale) [1]: 3; Post-emergence action: Ipopur. (score, nine-step scale) [1]: 2; Post-emergence action: Panicum (score, nine-step scale) [1]: 3; Post-emergence action: Xanth. (score, nine-step scale) [1]: 1
16 | COC(=O)C1(C)C(O)=C(C(=O)c2ccc(C(F)(F)F)nc2C)C(=O)CC1(C)C (stereo not drawn) [Compound A2-B1087] | 1 | 4 | 3 | 1 | 2 | 2 |  |  |  |  |  |  | 
